Results on two substances are retold here after EP3388439A1, “BIOTIN-CONJUGATED N-ACETYL GLYCOL SPLIT HEPARIN” (Leadiant Biosciences SA, priority 2017, dated 2018).

Test [1] relates to U87MG (human glioblastoma astrocytoma). The experiment in a line: SRB Cell Cytotoxicity Assay. It is filed as cell-based. As to conditions: 72h. The text has this:
(§1) SRB Cell Cytotoxicity Assay is based on the quantitative staining of cellular proteins by sulforhodamine B (SRB). This assay can be used for high-throughput drug screening (Vichai & Kirkitara, Nature Protocol. 2006, 1, 112). Sulforhodamine B is an anionic aminoxanthene dye that forms an electrostatic complex with the basic amino acid residues of proteins under moderately acid conditions, which provides a sensitive linear response.
(§2) To assess a putative antiproliferative activity of the selected compounds, HT1080 (human fibrosarcoma), U87MG (human glioblastoma astrocytoma) and U2OS (human osteosarcoma) cell lines were treated for 72h, in triplicate, with increasing concentrations of heparanase inhibitors. Inhibition of cell proliferation was then measured by the classical colorimetric SRB Cell Cytotoxicity assay. Absorbance was measured by spectrophotometer at a wavelength of 510 nm and cell proliferation was determined as percent with respect to control cells (cells treated with the vehicle alone). EC50 values were then determined by GraphPad Prism.
(§3) Results are summarized in the following Table 3, reporting the ability of anti-heparanase agents (test compounds) to reduce tumor growth (cytotoxic effect) on three tumor cell lines, evaluated at three concentrations. Results were expressed as a percentage of growth versus control.

Test [2] relates to HT1080 (human fibrosarcoma). The experiment in a line: SRB Cell Cytotoxicity Assay. As to conditions: 72h. It is filed as cell-based.
Description: as §1, §2, §3

The test system of test [3] is U2OS (human osteosarcoma). The experiment in a line: SRB Cell Cytotoxicity Assay. It is filed as cell-based. As to conditions: 72h.
Description: as §1, §2, §3

The target of the next test is T1, heparanase (Homo sapiens, UniProt Q9Y251).
T1 sequence (Q9Y251 158-543 limits assumed): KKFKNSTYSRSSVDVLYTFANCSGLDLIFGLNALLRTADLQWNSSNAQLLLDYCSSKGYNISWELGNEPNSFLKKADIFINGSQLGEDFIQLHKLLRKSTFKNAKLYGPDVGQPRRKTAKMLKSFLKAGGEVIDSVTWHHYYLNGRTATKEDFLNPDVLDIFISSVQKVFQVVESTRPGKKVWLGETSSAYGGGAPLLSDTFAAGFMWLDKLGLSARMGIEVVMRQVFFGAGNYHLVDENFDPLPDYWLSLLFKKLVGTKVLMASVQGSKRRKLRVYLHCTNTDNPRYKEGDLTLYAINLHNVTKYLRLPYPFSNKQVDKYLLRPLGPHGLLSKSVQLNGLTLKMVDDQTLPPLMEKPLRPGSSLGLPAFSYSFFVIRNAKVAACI
T1 sequence (Q9Y251 36-109 limits assumed): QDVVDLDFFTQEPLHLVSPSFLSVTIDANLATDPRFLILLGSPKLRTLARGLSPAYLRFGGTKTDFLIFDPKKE
The experiment in a line: Fondaparinux heparanase assay (AGA*IA assay), colorimetric WST-1. The conditions noted are these: 2.5 nM heparanase, 100 µM fondaparinux, pH 5.0, 3 h at 37°C. In kind it is biochemical. How it is done: In order to determinate their activity as potent heparanase inhibitor, compounds were tested in a simple, accurate and robust microplate assay based on the cleavage of the synthetic heparin fragment, the pentasaccharide Fondaparinux (AGA*IA). This assay was originally developed by Hammond and coworkers [Hammond E, Li CP, Ferro V. Development of a colorimetric assay for heparanase activity suitable for kinetic analysis and inhibitor screening. Anal. Biochem. 2010, 396(1), 112-116], where Fondaparinux corresponds to the methyl glycoside of the antithrombin III (ATIII)-activating pentasaccharide sequence of heparin. Fondaparinux is cleaved by heparanase to generate a reducing disaccharide, which can be quantitatively measured via a colorimetric or a fluorescence assay, the last by the fluorescent sensor polymer-H [Schiemann S, Lühn S, Alban S. Development of both colorimetric and fluorescence heparinase activity assays using fondaparinux as substrate. […]
Assay was carried out with 100 µl/well of assay solution containing 40 mM sodium acetate buffer (pH 5.0), 100 µM fondaparinux, 2.5 nM heparanase and serial dilutions of test compounds (tested in triplicate). […] Then, the absorbance at 560 nm was measured through a microplate reader (Victor 3, Perkin Elmer).
Finally, the measurements were corrected by subtracting both the reagent background and the inner absorbance value of test compound. […]
(Tetrazolium assays rely on reduction of a dye to a coloured formazan, in cell work by metabolically active cells.)

Test [4] relates to luciferase-labelled CAG myeloma cells. As to conditions: NOD/SCID mice, 1000 µg/mouse intraperitoneal twice a day from day 9 to day 29; Figure 2.
Description: Briefly, luciferase-labelled CAG myeloma cells (5x106; same cells) were injected subcutaneously into NOD/SCID mice (n=5). Mice were treated with compounds (1000 µg/mouse, injected intraperitoneal twice a day, starting on day 9 of cell inoculation).
Mice were injected with cells on day ONE and the first injection of compounds was given starting on day NINE, twice a day, including weekends. Tumor growth was examined by IVIS imaging prior to the first injection of compounds and once a week thereafter. The experiment was terminated on day TWENTYNINE (Figure 2).
IVIS imaging. Bioluminescent imaging of the luciferase-expressing tumors was performed with a highly sensitive, cooled charge coupled device (CCD) camera mounted in a light-tight specimen box (IVIS; Xenogen Corp., Waltham, MA). Briefly, mice were injected intraperitoneally with D-luciferin substrate at 150 mg/kg, anesthetized and placed onto a stage inside the light-tight camera box, with continuous exposure to isoflurane (EZAnesthesia, Palmer, PA). Light emitted from the bioluminescent cells was detected by the IVIS camera system with images quantified for tumor burden using a log-scale color range set at 5×10^4 to 1×10^7 and measurement of total photon counts per second (PPS) using Living Image software (Xenogen).
Test [5] deals with U87MG (human glioblastoma astrocytoma). The experiment in a line: Cell adhesion assay on matrigel coated wells. In kind it is cell-based. The conditions noted are these: treated 18-20h. The protocol: Cell surface, non-integrin molecules such as heparan sulfate proteoglycans (HSPGs) may be involved in the regulation of early adhesive stages of cell-ECM interactions. A cell adhesion assay has been employed to determine if the newly designed heparanase inhibitors were able to interfere with adhesion properties of cancer cells.
For the assay set-up, U87MG (human glioblastoma astrocytoma) cells were treated for 18-20h with test compounds, in complete medium supplemented with 10% FCS. Then, cells were collected, washed in complete medium, and added to matrigel coated wells in triplicate, at previously identified optimal seeding density, and incubated at 37 °C in complete medium for times ranging from 15 minutes to 4h (Goldshmidt et al, FASEB, 2003). After incubation, the wells were washed three times with serum-free medium and the remaining firmly attached cells were stained with crystal violet 0.1 reagent. Optical density was measure at 500 nm by Victor 3 (Perkin-Elmer) plate analyzer. Each experiment was repeated three times.

One may read the IC50 as the concentration needed to halve the response being measured. Lower therefore signals higher potency. Turning to “N-desulfated N-acetylated glycol split heparin -(GGGS)3-NH-(CH2)5-NH-Biotin with a substitution degree on the R1 and/or R1' positions of about 7% [SST0761NA1]”, the “Percentage tumor growth versus control U87MG” value in test [1] (11.1 µM) was 84.47%; in test [1] (33.3 µM), 75.00%; in test [1] (100 µM), 73.23%. The “Percentage tumor growth versus control HT1080” value in test [2] (11.1 µM) worked out at 99.98%; in test [2] (33.3 µM), 98.83%; in test [2] (100 µM) it was 75.02%. Besides, the “Percentage tumor growth versus control U2OS” value in test [3] (11.1 µM) is given as 85.3%; in test [3] (33.3 µM), 79.5%; in test [3] (100 µM), 69.3%. Further, the IC50 against heparanase was around 3 nM. Besides, the “inhibition of CAG myeloma cell growth” value in test [4] is on record as “reached statistical significance”. The results for the “Test compounds adhesion versus basal (100%)” value in test [5] (0.1 µM), in test [5] (1 µM) and in test [5] (10 µM) were 57.55%, 13.25% and 21.46%, respectively.

With “N-desulfated N-acetylated glycol split heparin -Reducing end-NH-CH2-1,2,3-Triazole-4, N-Glycine-CONH-(CH2)5-NH-Biotin with a substitution degree on the R3 position of about 2 % [SST0764NA1]”, the “Percentage tumor growth versus control U87MG” value in test [1] (11.1 µM) was found to be 90.61%; in test [1] (33.3 µM), 86.29%; in test [1] (100 µM), 76.44%. Besides, the “Percentage tumor growth versus control HT1080” value was ~ 100% in test [2] (11.1 µM), ~ 100% in test [2] (33.3 µM) and 95.15% in test [2] (100 µM). The “Percentage tumor growth versus control U2OS” value in test [3] (11.1 µM) turned out to be 80.70%; in test [3] (33.3 µM), 76.00%; in test [3] (100 µM), 66.90%. Moreover, the IC50 against heparanase is around 4 nM. For the same substance, the “Test compounds adhesion versus basal (100%)” value was determined as 83.21% in test [5] (0.1 µM), 19.82% in test [5] (1 µM) and 12.79% in test [5] (10 µM).
